Results as given in US9598433B2, “Hepatitis C virus inhibitors” (BRISTOL-MYERS SQUIBB COMPANY, priority 2012, dated 2017).
pEC50: −log10 of the molar value. Read-outs that look alike come from different tables or passages of the source.

Legend:
[1] = tested on: HCV genotype 1a (H77 strain) replicon in HUH-7 cells; assay: HCV replicon luciferase reporter assay, genotype 1a; assay type: cell-based; conditions: Hepatitis C virus, 72 h, genotype 1a replicon, 3 days incubation
Description: (§1) An HCV replicon whole cell system was established as described by Lohmann V, Korner F, Koch J, Herian U, Theilmann L, Bartenschlager R., Science 285(5424):110-3 (1999) and modified to introduce a luciferase reporter, as first described by Krieger et al (Krieger N, Lohmann V, and Bartenschlager R, J. Virol. 75(10):4614-4624 (2001)). CDNA encoding a humanized form of the Renilla luciferase gene and a linker sequence fused directly to the 3′-end of the luciferase gene were introduced into the replicon construct using an Ascl restriction site located in core, directly upstream of the neomycin marker gene. The adaptive mutation at position 1179 (serine to isoleucine) was also introduced (Blight K J, Kolykhalov, A A, Rice, C M, Science 290(5498):1972-1974). A stable cell line constitutively expressing this HCV replicon construct was generated by first linearizing plasmid DNAs with ScaI. RNA transcripts were synthesized in vitro using the T7 MegaScript transcription kit (Ambion, Austin, Tex.) according to manufacturer's directions. In vitro transcripts of the cDNA were transfected into the human hepatoma cell line, HUH-7. […] Resulting cell lines were characterized for positive and negative strand RNA production and protein production over time.
A stable HCV replicon luciferase reporter cell line representing the genotype 1a H77 strain (Yanagi M, Purcell R H, Emerson S U, et al. Transcripts from a single full-length cDNA clone of hepatitis C virus are infectious when directly transfected into the liver of a chimpanzee. Proc Natl Acad Sci USA 1997; 94(16):8738-8743) was generated as described previously for the genotype 1b(Con1) replicon luciferase cell line. The replicon construct was modified by introducing mutations were introduced into the genes encoding the NS3 helicase domain (proline replaced by leucine at position 1496) and NS5A (serine to isoleucine at position 2204) to improve replication in cell culture.
(§2) HCV replicon luciferase assays were developed to monitor the inhibitory effects of compounds described in the disclosure on HCV genotypes 1a and 1b viral replication. HUH-7 cells, constitutively expressing the HCV replicon, were grown in Dulbecco's Modified Eagle Media (DMEM) (Gibco-BRL) containing 10% Fetal calf serum (FCS) (Sigma) and 1 mg/mL G418 (Gibco-BRL). Compounds were serially diluted 3 folds in DMSO for a twenty-point titration and subsequently transferred to sterile 384-well tissue-culture treated plates (Corning cat #3571). The plates were then seeded with 50 μL of cells at a density of 3.0×10^3 cells/well in DMEM containing 4% FCS (final DMSO concentration at 0.5%). After 3 days incubation at 37° C., cells were analyzed for Renilla Luciferase activity using the EnduRen as substrate (Promega cat #E6485). The EnduRen substrate was diluted in DMEM and then added to the plates to a final concentration of 7.5 μM. The plates were incubated for 2 hrs at 37° C. and then read immediately for 30 seconds with Viewlux Imager (PerkinElmer) using a luminescence program. To assess cytotoxicity of compounds, CC50 values were generated by multiplexing the EnduRen-containing plates with Cell Titer-Blue (Promega, cat # G8082). Cell-Titer Blue (3 μL) was added to each well and incubated for 8 hrs at 37° C. The fluorescence signal from each well was read, with an excitation wavelength at 525/10 nm and an emission wavelength of 598/10 nm, using the Viewlux Imager.
(§3) The EC50 values for compounds were calculated by using a four-parameter logistic equation: y=A+((B−A)/(1+((C/x)^D))), where A and B denotes minimal and maximal % inhibition, respectively, C is the EC50, D is the hill slope and x represents compound concentration.

[2] = tested on: HCV genotype 1b (Con1) replicon in HUH-7 cells; assay: HCV replicon luciferase reporter assay, genotype 1b; assay type: cell-based; conditions: Hepatitis C virus, 72 h, genotype 1b replicon, 3 days incubation
Description: as §1, §2, §3

| Compound | pEC50 ([1]; read-out: LE_1a (EC50, range)) | pEC50 ([2]; read-out: LE_1b (EC50, range)) | pEC50 ([1]; read-out: LE_1a (EC50)) | pEC50 ([2]; read-out: LE_1b (EC50)) |
| --- | --- | --- | --- | --- |
| COc1cc2ccnc(O[C@@H]3C[C@H]4C(=O)N[C@]5(C(=O)NS(=O)(=O)C6(C)CC6)C[C@H]5/C=C\CC[C@@H](C)O[C@@H](C)[C@H](NC(=O)OC(C)(C)C(F)(F)F)C(=O)N4C3)c2cc1F [Compound 2005, 1,1,1-trifluoro-2-methylpropan-2-yl ((2R,6S,7S,9R,13aS,14aR,16aS,Z)-2-((7-fluoro-6-methoxyisoquinolin-1-yl)oxy)-7,9-dimethyl-14a-(((1-methylcyclopropyl)sulfonyl)carbamoyl)-5,16-dioxo-2,3,5,6,7,9,10,11,13a,14,14a,15,16,16a-tetradecahydro-1H-cyclopropa[i]pyrrolo[1,2-e][1,5,8]oxadiazacyclopentadecin-6-yl)carbamate] | 8.30 to 9.00 | 9.30 to 10.00 | – | – |
| COc1cc2ccnc(O[C@@H]3C[C@H]4C(=O)N[C@]5(C(=O)NS(=O)(=O)C6(C)CC6)C[C@H]5/C=C\CC[C@@H](C)O[C@@H](C)[C@H](NC(=O)OC(C)(C)C(C)(F)F)C(=O)N4C3)c2cc1F [Compound 2006, 3,3-difluoro-2-methylbutan-2-yl ((2R,6S,7S,9R,13aS,14aR,16aS,Z)-2-((7-fluoro-6-methoxyisoquinolin-1-yl)oxy)-7,9-dimethyl-14a-(((1-methylcyclopropyl)sulfonyl)carbamoyl)-5,16-dioxo-2,3,5,6,7,9,10,11,13a,14,14a,15,16,16a-tetradecahydro-1H-cyclopropa[i]pyrrolo[1,2-e][1,5,8]oxadiazacyclopentadecin-6-yl)carbamate] | 8.30 to 9.00 | 9.30 to 10.00 | – | – |
| COc1cnc(O[C@@H]2C[C@H]3C(=O)N[C@]4(C(=O)NS(=O)(=O)C5(C)CC5)C[C@H]4/C=C\CC[C@@H](C)O[C@@H](C)[C@H](NC(=O)OC(C)(C)C(F)(F)F)C(=O)N3C2)c2cc(F)ccc12 [Compound 2007, 1,1,1-trifluoro-2-methylpropan-2-yl ((2R,6S,7S,9R,13aS,14aR,16aS,Z)-2-((7-fluoro-4-methoxyisoquinolin-1-yl)oxy)-7,9-dimethyl-14a-(((1-methylcyclopropyl)sulfonyl)carbamoyl)-5,16-dioxo-2,3,5,6,7,9,10,11,13a,14,14a,15,16,16a-tetradecahydro-1H-cyclopropa[i]pyrrolo[1,2-e][1,5,8]oxadiazacyclopentadecin-6-yl)carbamate] | 9.00 to 9.29 | 9.30 to 10.00 | 9.20 | 9.62 |
| COc1cnc(O[C@@H]2C[C@H]3C(=O)N[C@]4(C(=O)NS(=O)(=O)C5(C)CC5)C[C@H]4/C=C\CC[C@@H](C)O[C@@H](C)[C@H](NC(=O)OC(C)(C)C(C)(F)F)C(=O)N3C2)c2cc(F)ccc12 [Compound 2008, 3,3-difluoro-2-methylbutan-2-yl ((2R,6S,7S,9R,13aS,14aR,16aS,Z)-2-((7-fluoro-4-methoxyisoquinolin-1-yl)oxy)-7,9-dimethyl-14a-(((1-methylcyclopropyl)sulfonyl)carbamoyl)-5,16-dioxo-2,3,5,6,7,9,10,11,13a,14,14a,15,16,16a-tetradecahydro-1H-cyclopropa[i]pyrrolo[1,2-e][1,5,8]oxadiazacyclopentadecin-6-yl)carbamate] | 9.00 to 9.29 | 9.30 to 10.00 | – | – |
| C[C@@H]1CC/C=C\[C@@H]2C[C@@]2(C(=O)NS(=O)(=O)C2(C)CC2)NC(=O)[C@@H]2C[C@@H](Oc3nccc4c5c(ccc34)OCCO5)CN2C(=O)[C@@H](NC(=O)OC(C)(C)C(F)(F)F)[C@H](C)O1 [Compound 2009, 1,1,1-trifluoro-2-methylpropan-2-yl ((2R,6S,7S,9R,13aS,14aR,16aS,Z)-2-((2,3-dihydro-[1,4]dioxino[2,3-f]isoquinolin-7-yl)oxy)-7,9-dimethyl-14a-(((1-methylcyclopropyl)sulfonyl)carbamoyl)-5,16-dioxo-2,3,5,6,7,9,10,11,13a,14,14a,15,16,16a-tetradecahydro-1H-cyclopropa[i]pyrrolo[1,2-e][1,5,8]oxadiazacyclopentadecin-6-yl)carbamate] | 8.30 to 9.00 | 9.00 to 9.29 | – | – |
